Converted amounts (≈) assume the structure as drawn.
Key:
Klebsiella pneumoniae [1] = test: Ratio of MIC for multidrug-resistant Klebsiella pneumoniae NCTC 13368 to MIC for multidrug-resistant Klebsiella pneumoniae NCTC 13368 in presence of efflux pump inhibitor PAbetaN; assay type: functional
Acinetobacter baumannii [2] = test: Antimicrobial activity against Acinetobacter baumannii ATCC 17978 by microdilution broth method; assay type: functional
Enterococcus faecium = test: Antibacterial activity against vancomycin resistant Enterococcus faecium NCTC 12204 by microdilution broth method; assay type: functional
Enterococcus faecalis = test: Antibacterial activity against vancomycin resistant Enterococcus faecalis NCTC 12201 by microdilution broth method; assay type: functional
Staphylococcus aureus [3] = test: Antibacterial activity against methicillin resistant Staphylococcus aureus NCTC 13616 by microdilution broth method; assay type: functional
Staphylococcus aureus [4] = test: Antibacterial activity against methicillin resistant Staphylococcus aureus NCTC 13277 by microdilution broth method; assay type: functional
Klebsiella pneumoniae [5] = test: Antimicrobial activity against multidrug-resistant Klebsiella pneumoniae M6 by microdilution broth method; assay type: functional
Klebsiella pneumoniae [6] = test: Antimicrobial activity against multidrug-resistant Klebsiella pneumoniae 46704 by microdilution broth method; assay type: functional
Klebsiella pneumoniae [7] = test: Antimicrobial activity against multidrug-resistant Klebsiella pneumoniae 51851 by microdilution broth method; assay type: functional
Acinetobacter baylyi = test: Antimicrobial activity against multidrug-resistant Acinetobacter baylyi ADP1 by microdilution broth method; assay type: functional
Escherichia coli [8] = test: Antimicrobial activity against multidrug-resistant Escherichia coli CFI_017_VIM4 by microdilution broth method; assay type: functional
Escherichia coli [9] = test: Antimicrobial activity against multidrug-resistant Escherichia coli CFI_160_KPC2 by microdilution broth method; assay type: functional
Burkholderia multivorans [10] = test: Antimicrobial activity against multidrug-resistant Burkholderia multivorans C1576 by microdilution broth method; assay type: functional
Burkholderia multivorans [11] = test: Antimicrobial activity against multidrug-resistant Burkholderia multivorans C1962 by microdilution broth method; assay type: functional
[12] = Antimicrobial activity against multidrug-resistant Burkholderia cepacia complex NCTC 17765 by microdilution broth method; assay type: functional
[13] = Antimicrobial activity against multidrug-resistant Burkholderia cepacia complex LMG 17997 by microdilution broth method; assay type: functional
[14] = Antimicrobial activity against multidrug-resistant Burkholderia cepacia complex NCTC 10743 by microdilution broth method; assay type: functional
Klebsiella pneumoniae [15] = test: Antibacterial activity against multidrug-resistant Klebsiella pneumoniae NCTC 13368 measured after 10 passages by microdilution broth method; assay type: functional
Klebsiella pneumoniae [16] = test: Antimicrobial activity against multidrug-resistant Klebsiella pneumoniae NCTC 13368 in presence of efflux pump inhibitor CCCP by microdilution broth method; assay type: functional
Klebsiella pneumoniae [17] = test: Antimicrobial activity against multidrug-resistant Klebsiella pneumoniae 16 in presence of efflux pump inhibitor CCCP by microdilution broth method; assay type: functional
Acinetobacter baumannii [18] = test: Antimicrobial activity against multidrug-resistant Acinetobacter baumannii NCTC 13424 in presence of efflux pump inhibitor CCCP by microdilution broth method; assay type: functional
Klebsiella pneumoniae [19] = test: Antimicrobial activity against multidrug-resistant Klebsiella pneumoniae NCTC 13368 in presence of efflux pump inhibitor PAbetaN by microdilution broth method; assay type: functional
Klebsiella pneumoniae [20] = test: Antimicrobial activity against multidrug-resistant Klebsiella pneumoniae 16 in presence of efflux pump inhibitor PAbetaN by microdilution broth method; assay type: functional
Acinetobacter baumannii [21] = test: Antimicrobial activity against multidrug-resistant Acinetobacter baumannii AYE in presence of efflux pump inhibitor PAbetaN by microdilution broth method; assay type: functional
Acinetobacter baumannii [22] = test: Antimicrobial activity against Acinetobacter baumannii ATCC 17978 in presence of efflux pump inhibitor PAbetaN by microdilution broth method; assay type: functional
Pseudomonas aeruginosa [23] = test: Antimicrobial activity against Pseudomonas aeruginosa PAO1 in presence of efflux pump inhibitor PAbetaN by microdilution broth method; assay type: functional
Pseudomonas aeruginosa [24] = test: Antimicrobial activity against multidrug-resistant Pseudomonas aeruginosa NCTC 13437 in presence of efflux pump inhibitor PAbetaN by microdilution broth method; assay type: functional
Pseudomonas aeruginosa [25] = test: Antimicrobial activity against Pseudomonas aeruginosa PAO1 in presence of membrane permeabilizer PMBN by microdilution broth method; assay type: functional
Klebsiella pneumoniae [26] = test: Ratio of MIC for multidrug-resistant Klebsiella pneumoniae 16 to MIC for multidrug-resistant Klebsiella pneumoniae 16 in presence of membrane permeabilizer PMBN; assay type: functional
Pseudomonas aeruginosa [27] = test: Ratio of MIC for multidrug-resistant Pseudomonas aeruginosa NCTC 13437 to MIC for multidrug-resistant Pseudomonas aeruginosa NCTC 13437 in presence of membrane permeabilizer PMBN; assay type: functional
DNA = test: Stabilization of 5'-FAM-TAT-ATA-TAG-ATA-TTT-TTT-TAT-CTA-TAT-ATA-3'-TAMRA DNA (unknown origin) assessed as reduction in change in melting temperature at 1:1 to 5:1 ligand to DNA ratio measured after 3 hrs by FRET-based assay relative to control; assay type: ADME, nucleic-acid assay
[28] = Cytotoxicity against human WI38 cells assessed as cell viability at 20 uM measured after 24 hrs by MTT assay relative to control; assay type: cell-based, WI-38; conditions: read-out: Activity
[29] = Selectivity ratio of cytotoxicity against human WI38 cells to MIC for Acinetobacter baumannii ATCC 17978; assay type: toxicity, cell-based
[30] = Selectivity ratio of cytotoxicity against human WI38 cells to MIC for multidrug-resistant Acinetobacter baumannii AYE; assay type: toxicity, cell-based
[31] = Selectivity ratio of cytotoxicity against human WI38 cells to MIC for Klebsiella pneumoniae M6; assay type: toxicity, cell-based
[32] = Selectivity ratio of cytotoxicity against human WI38 cells to MIC for Pseudomonas aeruginosa PAO1; assay type: toxicity, cell-based
[33] = Selectivity ratio of cytotoxicity against human WI38 cells to MIC for vancomycin resistant Enterococcus faecium NCTC 12204; assay type: toxicity, cell-based
[34] = Selectivity ratio of cytotoxicity against human WI38 cells to MIC for vancomycin resistant Enterococcus faecalis NCTC 12201; assay type: toxicity, cell-based
[35] = Selectivity ratio of cytotoxicity against human WI38 cells to MIC for vancomycin sensitive Enterococcus faecalis NCTC 775; assay type: toxicity, cell-based
[36] = Selectivity ratio of cytotoxicity against human WI38 cells to MIC for methicillin resistant Staphylococcus aureus NCTC 13616; assay type: toxicity, cell-based
[37] = Selectivity ratio of cytotoxicity against human WI38 cells to MIC for methicillin resistant Staphylococcus aureus NCTC 13277; assay type: toxicity, cell-based
[38] = Selectivity ratio of cytotoxicity against human WI38 cells to MIC for methicillin sensitive Staphylococcus aureus NCTC 6571; assay type: toxicity, cell-based
DNA gyrase = DNA gyrase (Staphylococcus aureus, UniProt P0A0K8+P20831); test: Inhibition of Staphylococcus aureus DNA gyrase using relaxed pNO1 as substrate by gel based fluorescence assay; assay type: protein-complex assay
[39] = biological target: T1, Cell division inhibitor SulA (Escherichia coli K-12) (UniProt P0AFZ5); test: Induction of Escherichia coli K12 MG1655 sulA promotor measured at 30 mins interval for 20 hrs by fluorescence assay relative to control; conditions: Escherichia coli str. K-12 substr. MG1655
T1 sequence (whole entry): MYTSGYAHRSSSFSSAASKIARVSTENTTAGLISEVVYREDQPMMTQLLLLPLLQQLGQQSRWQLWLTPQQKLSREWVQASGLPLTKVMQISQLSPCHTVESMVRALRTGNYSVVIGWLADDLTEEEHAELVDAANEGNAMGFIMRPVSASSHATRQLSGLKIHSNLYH

Klebsiella pneumoniae [40] = test: Antimicrobial activity against Klebsiella pneumoniae M137K by microdilution broth method; assay type: functional

DNA gyrase, sequence (P0A0K8 whole entry): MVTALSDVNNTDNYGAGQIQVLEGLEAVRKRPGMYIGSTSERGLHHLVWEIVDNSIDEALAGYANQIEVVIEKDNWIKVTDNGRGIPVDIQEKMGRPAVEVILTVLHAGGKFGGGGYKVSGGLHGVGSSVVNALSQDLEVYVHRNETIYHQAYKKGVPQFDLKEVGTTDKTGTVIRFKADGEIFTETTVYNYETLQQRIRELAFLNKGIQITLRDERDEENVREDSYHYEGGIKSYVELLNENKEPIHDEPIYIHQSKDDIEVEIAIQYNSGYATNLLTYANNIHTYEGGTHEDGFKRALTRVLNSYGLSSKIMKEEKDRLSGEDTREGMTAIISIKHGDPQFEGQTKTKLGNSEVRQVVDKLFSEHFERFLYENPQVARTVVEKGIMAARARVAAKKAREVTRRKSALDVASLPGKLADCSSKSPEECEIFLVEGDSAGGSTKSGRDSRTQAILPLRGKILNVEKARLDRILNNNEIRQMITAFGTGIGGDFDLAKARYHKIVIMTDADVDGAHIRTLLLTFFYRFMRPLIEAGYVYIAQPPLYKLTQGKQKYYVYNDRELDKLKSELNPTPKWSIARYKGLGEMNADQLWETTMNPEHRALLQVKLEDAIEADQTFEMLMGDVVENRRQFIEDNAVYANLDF
DNA gyrase, sequence (P20831 whole entry): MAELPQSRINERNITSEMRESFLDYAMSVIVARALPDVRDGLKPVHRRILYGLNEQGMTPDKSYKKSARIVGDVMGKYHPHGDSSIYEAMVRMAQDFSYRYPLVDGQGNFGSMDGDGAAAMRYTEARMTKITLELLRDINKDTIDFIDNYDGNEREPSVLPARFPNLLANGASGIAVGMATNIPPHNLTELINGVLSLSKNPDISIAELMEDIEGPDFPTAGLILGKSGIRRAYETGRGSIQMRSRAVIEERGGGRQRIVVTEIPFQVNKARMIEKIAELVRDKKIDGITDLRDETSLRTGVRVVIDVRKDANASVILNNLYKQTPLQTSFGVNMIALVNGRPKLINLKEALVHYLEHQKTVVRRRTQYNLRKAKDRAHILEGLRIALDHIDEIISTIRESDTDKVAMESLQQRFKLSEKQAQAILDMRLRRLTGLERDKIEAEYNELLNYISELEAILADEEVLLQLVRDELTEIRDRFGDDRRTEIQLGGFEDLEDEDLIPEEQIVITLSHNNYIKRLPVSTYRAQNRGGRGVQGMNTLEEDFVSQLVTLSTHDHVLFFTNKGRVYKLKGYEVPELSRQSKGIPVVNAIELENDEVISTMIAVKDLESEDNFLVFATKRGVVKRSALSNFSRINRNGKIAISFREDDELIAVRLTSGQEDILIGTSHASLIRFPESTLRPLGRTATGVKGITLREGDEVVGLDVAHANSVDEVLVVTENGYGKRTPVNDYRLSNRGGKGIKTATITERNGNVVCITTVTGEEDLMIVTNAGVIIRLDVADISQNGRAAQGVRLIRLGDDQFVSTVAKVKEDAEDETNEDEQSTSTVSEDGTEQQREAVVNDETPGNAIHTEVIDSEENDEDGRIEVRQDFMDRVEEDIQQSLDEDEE

Compound: COc1cc2c(cc1OCCCC(=O)Nc1cc(C(=O)Nc3ccc4sc(C(=O)N(C)C)cc4c3)n(C)c1)N=C[C@@H]1CCCN1C2=O
- Ratio (Klebsiella pneumoniae [1]): 4
- MIC (Acinetobacter baumannii [2]): 0.5 to 1 µg/mL (≈ 0.761 to 1.52 µM)
- MIC (Enterococcus faecium): 0.03 µg/mL (≈ 0.0457 µM)
- MIC (Enterococcus faecalis): 0.03 µg/mL (≈ 0.0457 µM)
- MIC (Staphylococcus aureus [3]): 0.03 µg/mL (≈ 0.0457 µM)
- MIC (Staphylococcus aureus [4]): 0.06 µg/mL (≈ 0.0914 µM)
- MIC (Klebsiella pneumoniae [5]): 1 µg/mL (≈ 1.52 µM)
- MIC (Klebsiella pneumoniae [6]): 1 µg/mL (≈ 1.52 µM)
- MIC (Klebsiella pneumoniae [7]): 2 µg/mL (≈ 3.05 µM)
- MIC (Acinetobacter baylyi): 0.125 µg/mL (≈ 0.19 µM)
- MIC (Escherichia coli [8]): 1 µg/mL (≈ 1.52 µM)
- MIC (Escherichia coli [9]): 0.5 µg/mL (≈ 0.761 µM)
- MIC (Burkholderia multivorans [10]): 1 µg/mL (≈ 1.52 µM)
- MIC (Burkholderia multivorans [11]): 2 µg/mL (≈ 3.05 µM)
- MIC [12]: 0.125 µg/mL (≈ 0.19 µM)
- MIC [13]: 0.125 µg/mL (≈ 0.19 µM)
- MIC [14]: 1 to 2 µg/mL (≈ 1.52 to 3.05 µM)
- MIC (Klebsiella pneumoniae [15]): > 32 µg/mL
- MIC (Klebsiella pneumoniae [16]): 2 µg/mL
- MIC (Klebsiella pneumoniae [17]): 0.06 to 0.5 µg/mL
- MIC (Acinetobacter baumannii [18]): 0.25 µg/mL
- MIC (Klebsiella pneumoniae [19]): 0.5 µg/mL
- MIC (Klebsiella pneumoniae [20]): 2 µg/mL
- MIC (Acinetobacter baumannii [21]): 0.25 µg/mL
- MIC (Acinetobacter baumannii [22]): 0.25 µg/mL
- MIC (Pseudomonas aeruginosa [23]): 2 µg/mL
- MIC (Pseudomonas aeruginosa [24]): 16 µg/mL
- MIC (Pseudomonas aeruginosa [25]): 2 to 16 µg/mL
- Ratio (Klebsiella pneumoniae [26]): 4
- Ratio (Pseudomonas aeruginosa [27]): 32 - 1000
- fold change (FC) (DNA): 3 to 4
- viability at 24 h, 20 µM [28]: > 85%
- selectivity ratio [29]: 10
- selectivity ratio [30]: 10
- selectivity ratio [31]: 10
- selectivity ratio [32]: 10
- selectivity ratio [33]: 100
- selectivity ratio [34]: 100
- selectivity ratio [35]: 100
- selectivity ratio [36]: 100
- selectivity ratio [37]: 100
- selectivity ratio [38]: 100
- IC50 (DNA gyrase; read-out: IC50 (converted)): 4.81 µM
- fold change (FC) [39]: 6 to 7
- MIC (Klebsiella pneumoniae [40]): 16 to 32 µg/mL (≈ 24.4 to 48.7 µM)

Compound: COc1cc2c(cc1OCCCC(=O)Nc1cc(C(=O)Nc3ccc4oc(C(=O)N5CCSCC5)cc4c3)n(C)c1)N=C[C@@H]1CCCN1C2=O
- Ratio (Klebsiella pneumoniae [1]): 4
- MIC (Acinetobacter baumannii [2]): 2 µg/mL (≈ 2.86 µM)
- MIC (Enterococcus faecium): 0.03 µg/mL (≈ 0.0429 µM)
- MIC (Enterococcus faecalis): 0.25 µg/mL (≈ 0.358 µM)
- MIC (Staphylococcus aureus [3]): 2 µg/mL (≈ 2.86 µM)
- MIC (Staphylococcus aureus [4]): 2 µg/mL (≈ 2.86 µM)
- MIC (Klebsiella pneumoniae [5]): 1 µg/mL (≈ 1.43 µM)
- MIC (Klebsiella pneumoniae [6]): 4 µg/mL (≈ 5.72 µM)
- MIC (Klebsiella pneumoniae [7]): 4 µg/mL (≈ 5.72 µM)
- MIC (Acinetobacter baylyi): 1 µg/mL (≈ 1.43 µM)
- MIC (Escherichia coli [8]): 2 µg/mL (≈ 2.86 µM)
- MIC (Escherichia coli [9]): 4 µg/mL (≈ 5.72 µM)
- MIC (Burkholderia multivorans [10]): 16 µg/mL (≈ 22.9 µM)
- MIC (Burkholderia multivorans [11]): > 32 µg/mL
- MIC [12]: 1 µg/mL (≈ 1.43 µM)
- MIC [13]: 0.25 µg/mL (≈ 0.358 µM)
- MIC [14]: 16 µg/mL (≈ 22.9 µM)
- MIC (Klebsiella pneumoniae [15]): ≥ 128 µg/mL
- MIC (Klebsiella pneumoniae [16]): > 32 µg/mL
- MIC (Klebsiella pneumoniae [17]): 0.12 to 1 µg/mL
- MIC (Acinetobacter baumannii [18]): 1 µg/mL
- MIC (Klebsiella pneumoniae [19]): 8 µg/mL
- MIC (Klebsiella pneumoniae [20]): 2 µg/mL
- MIC (Acinetobacter baumannii [21]): 2 µg/mL
- MIC (Acinetobacter baumannii [22]): 2 µg/mL
- MIC (Pseudomonas aeruginosa [23]): 32 µg/mL
- MIC (Pseudomonas aeruginosa [24]): > 32 µg/mL
- MIC (Pseudomonas aeruginosa [25]): 0.25 to 8 µg/mL
- Ratio (Klebsiella pneumoniae [26]): 4
- Ratio (Pseudomonas aeruginosa [27]): >=8 - 64
- fold change (FC) (DNA): 3 to 4
- viability at 24 h, 20 µM [28]: > 85%
- selectivity ratio [29]: 10
- selectivity ratio [30]: 10
- selectivity ratio [31]: 10
- selectivity ratio [32]: 10
- selectivity ratio [33]: 100
- selectivity ratio [34]: 100
- selectivity ratio [35]: 100
- selectivity ratio [36]: 100
- selectivity ratio [37]: 100
- selectivity ratio [38]: 100
- IC50 (DNA gyrase): Nd(Insoluble)
- fold change (FC) [39]: 6 to 7
- MIC (Klebsiella pneumoniae [40]): 32 µg/mL (≈ 45.8 µM)
